Assay results as given in paper PMC3169616, “Unique Residues Involved in Activation of the Multitasking Protease/Chaperone HtrA from Chlamydia trachomatis” (PLoS ONE, 2011).

Tests used:
CtHtrA [1] = target: T1, CtHtrA (Chlamydia trachomatis serovar D, UniProt P18584); assay: Activation of CtHtrA cleavage of Bcas1 substrate by added activator; type: biochemical; details: substrate Bcas1 (MCA-ENLHLPLPIIF-DNP), fluorimetric, 37°C
T1 construct: His-tag; made in house; host or cells: E. coli BL21 (DE3), plasmid pETHtrA
T1 sequence (P18584 17-497): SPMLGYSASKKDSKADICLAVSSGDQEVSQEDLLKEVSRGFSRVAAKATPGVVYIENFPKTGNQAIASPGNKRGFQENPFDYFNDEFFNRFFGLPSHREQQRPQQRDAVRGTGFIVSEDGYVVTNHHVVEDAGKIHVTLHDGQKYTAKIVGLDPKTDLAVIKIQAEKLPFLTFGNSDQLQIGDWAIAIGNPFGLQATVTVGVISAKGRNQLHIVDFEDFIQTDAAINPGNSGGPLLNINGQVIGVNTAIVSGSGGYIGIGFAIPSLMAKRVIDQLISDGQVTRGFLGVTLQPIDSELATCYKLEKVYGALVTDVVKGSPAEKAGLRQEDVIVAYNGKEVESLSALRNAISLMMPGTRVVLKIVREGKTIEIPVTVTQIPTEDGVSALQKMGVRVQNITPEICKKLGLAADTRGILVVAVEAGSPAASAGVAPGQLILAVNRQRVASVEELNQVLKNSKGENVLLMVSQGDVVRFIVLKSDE
Protocol: (§1) To determine if the addition of a second peptide to the protease assays could activate or increase CtHtrA proteolysis, two activator peptides were tested in the CtHtrA cleavage of the model ß-casein peptide substrate Bcas1. The first was based on the ß-casein C-terminal sequence (Act1: NH2-VLGPVRGPFPIIV-OH) and the second on insulin b chain C-terminal sequence (Act2: NH2-CGELGFFYTP-OH).
Finally, in order to determine if the 24-mer (highest amount with MOMP protein, or Act1), or 12-mer, or both, corresponds to enhanced protease activity, the incubations of CtHtrA and these potential in vivo activators were used for protease assays with the Bcas1 substrate (Fig. 6). […] The presence of the majority of CtHtrA as higher order oligomers correlated with an increased rate of proteolysis for CtHtrA, particularly when these oligomers were predominately 24-mers.
The purified recombinant protein was examined by Coomassie stained polyacrylamide gels and activity was checked using ß-casein cleavage assays prior to use in peptide assays. Briefly, this involved incubating 2 µg of the protease with 10 µg of ß-casein in 50 mM Tris pH 7.0, 20 mM MgCl2 for 2 h prior to examining the assays by SDS PAGE (ß-casein and protease only controls were always conducted). Protease assays using peptides were conducted using custom synthesised peptides (Mimotopes). […] Protease assays using pNA labelled peptides were conducted using the xMARK Microplate spectrophotometer (Bio-Rad) at 405 nm, incubated at 37°C, with a reading taken every 10 s for 30 min. The maximum slope over a minimum of 8 readings was used for the data analysis. […] The assays were excited at 340 nm and emission was detected at 405 nm with a gain of 1000, the assays were monitored every 20 s or at the minimum cycle time for up to 40 min. […] The assay results shown for the fluorescent compounds have been normalised for the amount of fluorescent emission detected using a standard curve of known concentrations of the MCA fluorophore under the identical assay conditions. […]

CtHtrA [2] = target: T1, CtHtrA; assay: Activation of CtHtrA cleavage of pNA peptides by added activator peptide; type: biochemical; details: data not shown
Protocol: as §1
One explanation for the observation of a lack of activation for some substrates could be that these substrates act as both activators and substrates by binding to both the active and allosteric sites of CtHtrA. In particular, the pNA peptides were not activated, which could imply that the pNA moiety itself may bind at the activation site. […]
The purified recombinant protein was examined by Coomassie stained polyacrylamide gels and activity was checked using ß-casein cleavage assays prior to use in peptide assays. […] Protease assays using pNA labelled peptides were conducted using the xMARK Microplate spectrophotometer (Bio-Rad) at 405 nm, incubated at 37°C, with a reading taken every 10 s for 30 min. The maximum slope over a minimum of 8 readings was used for the data analysis. […] The assays were excited at 340 nm and emission was detected at 405 nm with a gain of 1000, the assays were monitored every 20 s or at the minimum cycle time for up to 40 min. […]

QNIPF
effect of activator on rate of CtHtrA proteolysis of Bcas1 (CtHtrA [1]): did not activate CtHtrA cleavage of Bcas1 | effect of activator peptide on CtHtrA cleavage of pNA peptides (CtHtrA [2]): did activate the cleavage of some of the pNA peptides tested
